Experimental data reported in EP2057185B1, “POLYMYXIN DERIVATIVES AND USES THEREOF” (Northern Antibiotics Oy, priority 2006, dated 2008).
Bridge positions count the residues as written; N and C are the ends. Square brackets hold non-standard residues; d marks the D form. Peptide text beside a SMILES is read from it. * marks the point of attachment. Octanoyl = CCCCCCCC(=O)*; Dab = NCC[C@H](N)C(=O)O; Abu = CC[C@H](N)C(=O)O

What was measured:
[1] = tested on: Ac. baumannii F263; experiment: MIC by E-strips on Mueller-Hinton agar with or without NAB7061 (4 µg/ml); type: cell-based, Acinetobacter baumannii
Experimental: (§1) MICs were determined by using E-strips (Biodisk Ltd., Solna, Sweden) according to the manufacturer's instructions.
(§2) The strains originated from ATCC (11 strains), CCUG (11 strains), and NCTC (The National Collection of Type Cultures, Colindale, U.K.; 2 strains). Eight strains (the F-strains) were purchased from Mobidiag Ltd., Helsinki, Finland.

[2] = tested on: Ac. baumannii ATCC19606; experiment: as above; type: cell-based, Acinetobacter baumannii
Experimental: as §1, §2

[3] = tested on: E. coli IH3080 (O18:K1); experiment: Synergistic bactericidal activity with guinea pig serum (complement); type: cell-based, Escherichia coli; details: none (PBS)
[4] = molecular target: brush-border membrane (BBM) of the renal cortex; experiment: Inhibition of binding of radiolabelled gentamycin to brush-border membrane; set-up: species or system male albino rats; details: BBM vesicles, 20 µM [^3H] gentamycin, 60 min at 4°C, pH 7.5
Excerpt: The binding of the compounds according to this invention to isolated brush-border membrane (BBM) from the renal cortex can be measured indirectly by measuring their ability to inhibit the binding of radiolabelled gentamycin to BBM. Accordingly, the compounds according to this invention that have less affinity to BBM than for example polymyxin B inhibit the binding of radio-labelled gentamycin to a lesser degree than does polymyxin B.
BBM was isolated from the renal cortex of male albino rats by using the Mg^2+/EGTA precipitation technique as described by Nagai et al. (2006). The binding of gentamycin was measured, according to the method described by Nagai et al. (2006) by incubating BBM vesicles (20µl) in 10 mM HEPES (pH 7.5) with 300 mM mannitol in the presence of 20 µM [^3H] gentamycin (American Radiolabeled Chemicals, Inc. (St. Louis, MO, U.S.A.)) with or without the compound to be tested or a positive control. After an incubation of 60 min at 4°C, 1 ml of ice-cold buffer described above was added, and the mixture was filtered through a Millipore filter (0.45 µm; HAWP). The filter was washed with the buffer and the radioactivity remaining in the filter was measured by using a liquid scintillation counter. The IC50 values were determined as in Nagai et al. (2006) using the Hill equation.

[5] = tested on: E. coli CCUG41432; experiment: MIC by E-strips on Mueller-Hinton agar with or without NAB7061 (4 µg/ml); type: cell-based, Escherichia coli
Experimental: as §1, §2

[6] = tested on: E. coli CCUG41425; experiment: as above; type: cell-based, Escherichia coli
Experimental: as §1, §2

[7] = tested on: E. coli CCUG41422; experiment: as above; type: cell-based, Escherichia coli
Experimental: as §1, §2

[8] = tested on: E. coli CCUG41424; experiment: as above; type: cell-based, Escherichia coli
Experimental: as §1, §2

[9] = tested on: E. coli NCTC13351; experiment: as above; type: cell-based, Escherichia coli
Experimental: as §1, §2

[10] = tested on: P. aeruginosa ATCC27853; experiment: as above; type: cell-based, Pseudomonas aeruginosa
Experimental: as §1, §2

[11] = tested on: P. aeruginosa F58; experiment: as above; type: cell-based, Pseudomonas aeruginosa
Experimental: as §1, §2

[12] = tested on: C. freundii ATCC8090; experiment: Growth inhibition around wells on LB agar plates; type: cell-based, Citrobacter freundii; details: growth inhibition area around well
Experimental: (§3) From an overnight-grown culture of IH3080 on LB agar, a suspension of approx. 10^8 cells/ml was prepared in 0.9% NaCl. Aliquots of this suspension were then pipetted on the agar plates and the plates were gently shaken to spread the suspension evenly on the entire surface of the plate. Thereafter, the unabsorbed part of the suspension was removed by using a Pasteur pipette. After the surface had dried, small wells (diameter, 2 mm) were drilled on the plates (five wells per plate) by using a sterile sharp-edged narrow metal tube, single-use pipette tip, and vacuum suction. Samples (4 µl and 10 µl) of the peptide solution in 0.9% NaCl (at concentrations of 1 µg/ml and 0.1 µg/ml) were then pipetted to the wells and the sample fluids were allowed to absorb. Controls included 0.9% NaCl solution without the compound to be tested. The plates were then incubated for 18 h at 37°C whereafter the diameters of growth inhibition zones around each well were measured; the diameter of the well itself was […]. Finally, the diameters were converted to surface areas of growth inhibition (in square mm).
(§4) The susceptibility of eleven Gram-negative bacterial strains (nine different species) to NAB734 and polymyxin B was compared by using the susceptibility determination method described in Example 2. […]

[13] = tested on: K. oxytoca ATCC 13182; experiment: Growth inhibition around wells on LB agar plates; type: cell-based, Klebsiella oxytoca; details: growth inhibition area around well
Experimental: as §3, §4

[14] = tested on: K. pneumoniae ATCC13883; experiment: Growth inhibition around wells on LB agar plates; type: cell-based, Klebsiella pneumoniae; details: growth inhibition area around well
Experimental: as §3
(§5) The susceptibility of eleven Gram-negative bacterial strains (nine different species) to NAB734 and polymyxin B was compared by using the susceptibility determination method described in Example 2. The strains included those belonging to the species of Serratia marcescens and Proteus mirabilis, both species generally known to be resistant to polymyxin. Furthermore, the susceptibility determination was also performed by using the Gram-positive bacterium, Staphylococcus aureus, also generally known to be polymyxin-resistant. Ten of the strains originated from ATCC (American Type Culture Collection, Manassas, VA, U.S.A.), and one from CCUG (Culture Collection of University of Gothenburg, Sweden). The source of E. coli IH3080 has been described in Example 2. Polymyxin B sulfate was from Sigma-Aldrich (St. Louis, MO, USA).

[15] = tested on: K. pneumoniae CCUG45421; experiment: Growth inhibition around wells on LB agar plates; type: cell-based, Klebsiella pneumoniae; details: growth inhibition area around well
Experimental: as §3, §5

## CCCCCCCC(=O)N[C@H](C(=O)N[C@@H](CC)C(=O)N[C@H]1CCNC(=O)[C@H]([C@@H](C)O)NC(=O)[C@H](CCN)NC(=O)[C@H](CCN)NC(=O)[C@H](CC(C)C)NC(=O)[C@@H](Cc2ccccc2)NC(=O)[C@H](CCN)NC1=O)[C@@H](C)O [NAB 7061, OA-Thr-Abu-cy[Dab-Dab-DPhe-Leu-Dab-Dab-Thr-]] (Octanoyl-T[Abu][Dab][Dab][dF]L[Dab][Dab]T; lactam 3-C)
[1]
  MIC (µg/ml) of clarithromycin in the presence of 4 µg/ml of NAB 7061: […]
  MIC (µg/ml) of rifampin in the presence of 4 µg/ml of NAB 7061: […]
[1]; 4 µg/ml of NAB 7061
  Sensitization factor to clarithromycin: […]
  Sensitization factor to rifampin: […]
[2]
  MIC (µg/ml) of clarithromycin in the presence of 4 µg/ml of NAB 7061: […]
  MIC (µg/ml) of rifampin in the presence of 4 µg/ml of NAB 7061: […]
[2]; 4 µg/ml of NAB 7061
  Sensitization factor to clarithromycin: […]
  Sensitization factor to rifampin: […]
[3]; NAB7061 1 µg/ml
  % survival after 2-hour treatment at 37°C: 97%
[3]; NAB7061 2 µg/ml
  % survival after 2-hour treatment at 37°C: 97%
[3]; NAB7061 4 µg/ml
  % survival after 2-hour treatment at 37°C: 79%
[4]
  IC50: 187 µM
[5]
  MIC (µg/ml) of clarithromycin in the presence of 4 µg/ml of NAB 7061: […]
  MIC (µg/ml) of rifampin in the presence of 4 µg/ml of NAB 7061: […]
[5]; 4 µg/ml of NAB 7061
  Sensitization factor to clarithromycin: […]
  Sensitization factor to rifampin: […]
[6]
  MIC (µg/ml) of clarithromycin in the presence of 4 µg/ml of NAB 7061: […]
  MIC (µg/ml) of rifampin in the presence of 4 µg/ml of NAB 7061: […]
[6]; 4 µg/ml of NAB 7061
  Sensitization factor to clarithromycin: […]
  Sensitization factor to rifampin: […]
[7]
  MIC (µg/ml) of clarithromycin in the presence of 4 µg/ml of NAB 7061: […]
  MIC (µg/ml) of rifampin in the presence of 4 µg/ml of NAB 7061: […]
[7]; 4 µg/ml of NAB 7061
  Sensitization factor to clarithromycin: […]
  Sensitization factor to rifampin: […]
[8]
  MIC (µg/ml) of clarithromycin in the presence of 4 µg/ml of NAB 7061: […]
  MIC (µg/ml) of rifampin in the presence of 4 µg/ml of NAB 7061: […]
[8]; 4 µg/ml of NAB 7061
  Sensitization factor to clarithromycin: […]
  Sensitization factor to rifampin: […]
[9]
  MIC (µg/ml) of clarithromycin in the presence of 4 µg/ml of NAB 7061: […]
  MIC (µg/ml) of rifampin in the presence of 4 µg/ml of NAB 7061: […]
[9]; 4 µg/ml of NAB 7061
  Sensitization factor to clarithromycin: […]
  Sensitization factor to rifampin: […]
[10]
  MIC (µg/ml) of clarithromycin in the presence of 4 µg/ml of NAB 7061: […]
  MIC (µg/ml) of rifampin in the presence of 4 µg/ml of NAB 7061: […]
[10]; 4 µg/ml of NAB 7061
  Sensitization factor to clarithromycin: […]
  Sensitization factor to rifampin: […]
[11]
  MIC (µg/ml) of clarithromycin in the presence of 4 µg/ml of NAB 7061: […]
  MIC (µg/ml) of rifampin in the presence of 4 µg/ml of NAB 7061: […]
[11]; 4 µg/ml of NAB 7061
  Sensitization factor to clarithromycin: […]
  Sensitization factor to rifampin: […]

## Polymyxin B
[12]; 4 µg
  Antibacterial activity 4 µg: 95 square millimeters
[12]; 10 µg
  Antibacterial activity 10 µg: 154 square millimeters
[13]; 4 µg
  Antibacterial activity 4 µg: 79 square millimeters
[13]; 10 µg
  Antibacterial activity 10 µg: 104 square millimeters
[14]; 4 µg
  Antibacterial activity 4 µg: 79 square millimeters
[14]; 10 µg
  Antibacterial activity 10 µg: 113 square millimeters
[15]; 4 µg
  Antibacterial activity 4 µg: 95 square millimeters
[15]; 10 µg
  Antibacterial activity 10 µg: 133 square millimeters
